# Test results taken from PubChem BioAssay AID330 (DTP/NCI, 2004).
# Where “and” joins values, the source holds several entries; their conditions need not be identical. Equal values may be shown once. Inconclusive results and toxic doses are left out.
# System: P388 leukemia ip, CD2F1 mice, survival T/C
# Assay: NCI In Vivo Anticancer Drug Screen. Data for tumor model P388 Leukemia (intraperitoneal) in CD2F1 (CDF1) mice
# Conditions: endpoint: median survival time, higher = longer survival
# In short: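 Mice carrying the transplanted tumor received test compound or vehicle. Survival was recorded in each group, and the value is the treated-group measurement divided by that of the vehicle-treated control group.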
# [1] = dose: 100.0 mg/kg/injection, schedule: Q04DX003 (ip), vehicle: saline
# [2] = dose: 6.25 mg/kg/injection, schedule: Q01DX009 (ip), vehicle: saline
# [3] = dose: 50.0 mg/kg/injection, schedule: Q01DX009 (ip), vehicle: saline
smiles,measurement,setting,value
O=C1c2ccccc2C(=O)c2c(NCCNCCO)ccc(O)c21,T/C,"dose: 1.25 mg/kg/injection, schedule: Q01DX009 (ip), vehicle: acid diluted with saline",118 % of control and 122 % of control
same,T/C,"dose: 2.5 mg/kg/injection, schedule: Q01DX009 (ip), vehicle: acid diluted with saline",216 % of control
same,T/C,"dose: 3.12 mg/kg/injection, schedule: Q04DX002 (ip), vehicle: water",110 % of control
same,T/C,"dose: 5.0 mg/kg/injection, schedule: Q01DX005 (ip), vehicle: saline",258 % of control
same,T/C,"dose: 5.0 mg/kg/injection, schedule: Q01DX005 (iv), vehicle: saline",119 % of control
same,T/C,"dose: 5.0 mg/kg/injection, schedule: Q01DX009 (ip), vehicle: acid diluted with saline",274 % of control
same,T/C,"dose: 5.0 mg/kg/injection, schedule: Q01DX009 (ip), vehicle: distilled water + Tween-80",177 % of control
same,T/C,"dose: 6.25 mg/kg/injection, schedule: Q04DX002 (ip), vehicle: other",120 % of control
same,T/C,"dose: 10.0 mg/kg/injection, schedule: Q01DX001 (iv), vehicle: saline",108 % of control
same,T/C,"dose: 10.0 mg/kg/injection, schedule: Q01DX005 (ip), vehicle: saline",276 % of control
same,T/C,"dose: 10.0 mg/kg/injection, schedule: Q01DX005 (iv), vehicle: saline",151 % of control
same,T/C,"dose: 10.0 mg/kg/injection, schedule: Q01DX009 (ip), vehicle: acid diluted with saline",436 % of control
same,T/C,"dose: 10.0 mg/kg/injection, schedule: Q01DX009 (ip), vehicle: distilled water + Tween-80",247 % of control
same,T/C,"dose: 10.0 mg/kg/injection, schedule: Q04DX003 (ip), vehicle: saline",185 % of control
same,T/C,"dose: 10.0 mg/kg/injection, schedule: Q04DX003 (iv), vehicle: saline",116 % of control
same,T/C,"dose: 19.4 mg/kg/injection, schedule: Q04DX003 (ip), vehicle: saline",259 % of control
same,T/C,"dose: 20.0 mg/kg/injection, schedule: Q01DX001 (ip), vehicle: saline",190 % of control
same,T/C,"dose: 20.0 mg/kg/injection, schedule: Q01DX001 (iv), vehicle: saline",116 % of control
same,T/C,"dose: 20.0 mg/kg/injection, schedule: Q01DX005 (ip), vehicle: saline",312 % of control
same,T/C,"dose: 20.0 mg/kg/injection, schedule: Q01DX005 (iv), vehicle: saline",177 % of control
same,T/C,"dose: 20.0 mg/kg/injection, schedule: Q01DX009 (ip), vehicle: acid diluted with saline",158 % of control
same,T/C,"dose: 20.0 mg/kg/injection, schedule: Q01DX009 (ip), vehicle: distilled water + Tween-80",211 % of control
same,T/C,"dose: 20.0 mg/kg/injection, schedule: Q04DX003 (ip), vehicle: saline",214 % of control
same,T/C,"dose: 25.0 mg/kg/injection, schedule: Q04DX002 (ip), vehicle: other",116 % of control
same,T/C,"dose: 25.0 mg/kg/injection, schedule: Q04DX002 (ip), vehicle: water",198 % of control
same,T/C,"dose: 32.4 mg/kg/injection, schedule: Q04DX003 (ip), vehicle: saline",211 % of control
same,T/C,"dose: 40.0 mg/kg/injection, schedule: Q01DX001 (ip), vehicle: saline",205 % of control
same,T/C,"dose: 40.0 mg/kg/injection, schedule: Q01DX009 (ip), vehicle: acid diluted with saline",150 % of control and 163 % of control
same,T/C,"dose: 40.0 mg/kg/injection, schedule: Q04DX003 (ip), vehicle: saline",223 % of control
same,T/C,"dose: 50.0 mg/kg/injection, schedule: Q04DX002 (ip), vehicle: other",103 % of control
same,T/C,"dose: 50.0 mg/kg/injection, schedule: Q04DX002 (ip), vehicle: water",261 % of control
same,T/C,"dose: 80.0 mg/kg/injection, schedule: Q01DX001 (ip), vehicle: saline",178 % of control
same,T/C,"dose: 100.0 mg/kg/injection, schedule: Q04DX002 (ip), vehicle: water",157 % of control and 161 % of control
same,T/C,"dose: 200.0 mg/kg/injection, schedule: Q04DX002 (ip), vehicle: water",188 % of control
COC1(CO)OCC(O)C(O)C1O (stereo not drawn),T/C,"dose: 50.0 mg/kg/injection, schedule: Q01DX005 (ip), vehicle: saline",91 % of control
same,T/C,"dose: 100.0 mg/kg/injection, schedule: Q01DX005 (ip), vehicle: saline",93 % of control
same,T/C,"dose: 200.0 mg/kg/injection, schedule: Q01DX005 (ip), vehicle: saline",101 % of control
C1C2OC2C2C1C1CC2C2OC12 (stereo not drawn),T/C,"dose: 6.25 mg/kg/injection, schedule: Q01DX009 (ip), vehicle: Klucel (hydroxypropylcellulose) (HPC)",105 % of control
same,T/C,"dose: 12.5 mg/kg/injection, schedule: Q01DX009 (ip), vehicle: Klucel (hydroxypropylcellulose) (HPC)",96 % of control
same,T/C,"dose: 25.0 mg/kg/injection, schedule: Q01DX009 (ip), vehicle: Klucel (hydroxypropylcellulose) (HPC)",99 % of control
O=S1(=O)CCCO1,T/C,[1],100 % of control
same,T/C,"dose: 200.0 mg/kg/injection, schedule: Q04DX003 (ip), vehicle: saline",118 % of control
CSc1nc(N)n2ncc(Br)c2n1,T/C,"dose: 100.0 mg/kg/injection, schedule: Q04DX002 (ip), vehicle: saline with Tween-80",92 % of control
CC(=O)OCC1OC(n2cc(CBr)nn2)C(OC(C)=O)C(OC(C)=O)C1OC(C)=O (stereo not drawn),T/C,"dose: 6.25 mg/kg/injection, schedule: Q01DX009 (ip), vehicle: distilled water + Tween-80",102 % of control and 94 % of control
same,T/C,[2],93 % of control
same,T/C,"dose: 12.5 mg/kg/injection, schedule: Q01DX009 (ip), vehicle: distilled water + Tween-80",106 % of control and 115 % of control
same,T/C,"dose: 25.0 mg/kg/injection, schedule: Q01DX009 (ip), vehicle: distilled water + Tween-80",115 % of control
same,T/C,"dose: 50.0 mg/kg/injection, schedule: Q01DX009 (ip), vehicle: distilled water + Tween-80",118 % of control
same,T/C,[3],163 % of control
same,T/C,"dose: 50.0 mg/kg/injection, schedule: Q04DX003 (ip), vehicle: saline",101 % of control
same,T/C,"dose: 100.0 mg/kg/injection, schedule: Q01DX009 (ip), vehicle: distilled water + Tween-80",90 % of control
same,T/C,[1],99 % of control
Cc1nc(Sc2nc3ccc([N+](=O)[O-])cc3s2)sc1C,T/C,[3],87 % of control
same,T/C,"dose: 100.0 mg/kg/injection, schedule: Q01DX009 (ip), vehicle: saline",96 % of control
same,T/C,"dose: 200.0 mg/kg/injection, schedule: Q01DX009 (ip), vehicle: saline",105 % of control
same,T/C,"dose: 400.0 mg/kg/injection, schedule: Q01DX009 (ip), vehicle: saline",96 % of control
CCCC(=O)Oc1c(OC)cc(O)c2c(=O)c(O)c(-c3ccc(OC)cc3)oc12,T/C,"dose: 14.0 mg/kg/injection, schedule: Q01DX005 (ip), vehicle: Klucel (hydroxypropylcellulose) (HPC)",89 % of control
same,T/C,"dose: 56.0 mg/kg/injection, schedule: Q01DX005 (ip), vehicle: Klucel (hydroxypropylcellulose) (HPC)",87 % of control
same,T/C,"dose: 112.0 mg/kg/injection, schedule: Q01DX005 (ip), vehicle: Klucel (hydroxypropylcellulose) (HPC)",108 % of control
OCC1=CC(O)C2C=COC(C3OC(CO)C(O)C(O)C3O)C12 (stereo not drawn),T/C,"dose: 60.0 mg/kg/injection, schedule: Q01DX005 (ip), vehicle: saline",103 % of control
same,T/C,"dose: 120.0 mg/kg/injection, schedule: Q01DX005 (ip), vehicle: saline",102 % of control
same,T/C,"dose: 240.0 mg/kg/injection, schedule: Q01DX005 (ip), vehicle: saline",100 % of control
CC(=O)Nc1nc(Cl)c2ncn(C3CC(OC(=O)c4ccc(C)cc4)C(COC(=O)c4ccc(C)cc4)O3)c2n1 (stereo not drawn),T/C,"dose: 12.5 mg/kg/injection, schedule: Q01DX005 (ip), vehicle: Klucel (hydroxypropylcellulose) (HPC)",97 % of control
same,T/C,"dose: 25.0 mg/kg/injection, schedule: Q01DX005 (ip), vehicle: Klucel (hydroxypropylcellulose) (HPC)",90 % of control
same,T/C,"dose: 50.0 mg/kg/injection, schedule: Q01DX005 (ip), vehicle: Klucel (hydroxypropylcellulose) (HPC)",97 % of control and 100 % of control
same,T/C,"dose: 100.0 mg/kg/injection, schedule: Q01DX005 (ip), vehicle: Klucel (hydroxypropylcellulose) (HPC)",95 % of control and 98 % of control
same,T/C,"dose: 200.0 mg/kg/injection, schedule: Q01DX005 (ip), vehicle: Klucel (hydroxypropylcellulose) (HPC)",97 % of control and 103 % of control
CCCCCC[N+]1(CC)CCCCC1,T/C,[2],107 % of control
same,T/C,"dose: 12.5 mg/kg/injection, schedule: Q01DX009 (ip), vehicle: saline",105 % of control
same,T/C,"dose: 25.0 mg/kg/injection, schedule: Q01DX009 (ip), vehicle: saline",107 % of control
O=C1CSC(=O)N1c1cccc(Cl)c1,T/C,"dose: 1.56 mg/kg/injection, schedule: Q01DX009 (ip), vehicle: saline",99 % of control and 97 % of control
same,T/C,"dose: 3.12 mg/kg/injection, schedule: Q01DX009 (ip), vehicle: saline",100 % of control and 103 % of control
same,T/C,[2],90 % of control and 96 % of control
same,T/C,"dose: 50.0 mg/kg/injection, schedule: Q01DX009 (ip), vehicle: saline with Tween-80",106 % of control
same,T/C,[3],89 % of control
CCOC(=O)C1C(COCc2ccccc2)C2CCC1(OC)C=C2C (stereo not drawn),T/C,"dose: 50.0 mg/kg/injection, schedule: Q01DX005 (ip), vehicle: saline with Tween-80",99 % of control
same,T/C,"dose: 100.0 mg/kg/injection, schedule: Q01DX005 (ip), vehicle: saline with Tween-80",97 % of control
same,T/C,"dose: 200.0 mg/kg/injection, schedule: Q01DX005 (ip), vehicle: saline with Tween-80",104 % of control
